According to PubChem BioAssay AID2060340 (Molecular Pharmacology Branch, DTP, NCI, 2025):
Where “and” joins values, the source holds several entries; their conditions need not be identical. Identical values can stand only once.

System: 349418-098-R-PDC spheroids, viability, % test/control
Experiment: Anticancer human tumor 349418-098-R-PDC patient-derived lung adenocarcinoma cell line growth inhibition [IpAb]
Details: spheroids with HUVEC and MSC; for viability, T/C: stronger effect = lower value
How it was run: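 Combinations with ipatasertib or abemaciclib were tested on tumour spheroids holding HUVEC (25%) and MSC (15%) alongside 60% malignant cells. Top concentration was at or near clinical Cmax (10 microM if undefined), descending in half-log steps.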

[1] = curve of first compound, second compound 0.01 µM
[2] = curve of first compound, second compound 0.0316 µM
[3] = curve of first compound, second compound 0.1 µM
[4] = curve of first compound, second compound 0.316 µM
[5] = curve of first compound, second compound 1 µM
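Note: spheroids exposed to compounds for 7 days.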

## C=CCn1c(=O)c2cnc(Nc3ccc(N4CCN(C)CC4)cc3)nc2n1-c1cccc(C(C)(C)O)n1
Compound 0.0316 µM
  viability, T/C: 91.8% and 105%
Compound 0.1 µM
  viability, T/C: 84.5% and 88.7%
Compound 0.316 µM
  viability, T/C: 18.8% and 26.7%
Compound 1 µM
  viability, T/C: 5.04% and 4.87%
Compound 3.16 µM
  viability, T/C: 4.87% and 4.84%
Compound 10 µM
  viability, T/C: 6.19% and 4.54%
Curve of compound
  IC50: 183 nM and 205 nM

## CC(C)NCC(C(=O)N1CCN(c2ncnc3c2C(C)CC3O)CC1)c1ccc(Cl)cc1 (stereo unspecified)
Compound 0.1 µM
  viability, T/C: 84.9% [middle of 13 runs]
Compound 1 µM
  viability, T/C: 24.5% [middle of 13 runs]
Compound 3.16 µM
  viability, T/C: 11.8% [middle of 13 runs]
Compound 10 µM
  viability, T/C: 7.07% [middle of 11 runs]
Compound alone, run of 05/18/2021
  IC50: 350 nM [middle of 13 runs]

## Cn1ncnc1[C@H]1c2n[nH]c(=O)c3cc(F)cc(c23)N[C@@H]1c1ccc(F)cc1
Compound 0.000316 µM
  viability, T/C: 96.5% and 98.7%
Compound 0.001 µM
  viability, T/C: 100% and 99.5%
Compound 0.00316 µM
  viability, T/C: 94.5% and 104%
Compound 0.01 µM
  viability, T/C: 94.8% and 100%
Compound 0.0316 µM
  viability, T/C: 83.4% and 81.5%
Compound 0.1 µM
  viability, T/C: 75.5% and 78.4%
Curve of compound
  IC50: > 100 nM

## Cn1cnc2c(F)c(Nc3ccc(Br)cc3Cl)c(C(=O)NOCCO)cc21 + CCN1CCN(Cc2ccc(Nc3ncc(F)c(-c4cc(F)c5nc(C)n(C(C)C)c5c4)n3)nc2)CC1
[1]
  IC50: < 9.49 nM
[2]
  IC50: < 9.49 nM
[3]
  IC50: < 9.49 nM
[4]
  IC50: < 9.49 nM
[5]
  IC50: < 9.49 nM
Second compound 0.01 µM, first compound 0.00949 µM
  viability, T/C: 41.1%
Second compound 0.01 µM, first compound 0.03 µM
  viability, T/C: 33.9%
Second compound 0.01 µM, first compound 0.0949 µM
  viability, T/C: 27.2%
Second compound 0.01 µM, first compound 0.3 µM
  viability, T/C: 28.7%
Second compound 0.01 µM, first compound 0.949 µM
  viability, T/C: 17.3%
Second compound 0.01 µM, first compound 3 µM
  viability, T/C: 8.8%
Second compound 0.0316 µM, first compound 0.00949 µM
  viability, T/C: 26.7%
Second compound 0.0316 µM, first compound 0.03 µM
  viability, T/C: 21.7%
Second compound 0.0316 µM, first compound 0.0949 µM
  viability, T/C: 18.9%
Second compound 0.0316 µM, first compound 0.3 µM
  viability, T/C: 17.9%
Second compound 0.0316 µM, first compound 0.949 µM
  viability, T/C: 12.1%
Second compound 0.0316 µM, first compound 3 µM
  viability, T/C: 7.93%
Second compound 0.1 µM, first compound 0.00949 µM
  viability, T/C: 15.1%
Second compound 0.1 µM, first compound 0.03 µM
  viability, T/C: 14.7%
Second compound 0.1 µM, first compound 0.0949 µM
  viability, T/C: 12%
Second compound 0.1 µM, first compound 0.3 µM
  viability, T/C: 11.2%
Second compound 0.1 µM, first compound 0.949 µM
  viability, T/C: 9.1%
Second compound 0.1 µM, first compound 3 µM
  viability, T/C: 6.69%
Second compound 0.316 µM, first compound 0.00949 µM
  viability, T/C: 12.1%
Second compound 0.316 µM, first compound 0.03 µM
  viability, T/C: 11.2%
Second compound 0.316 µM, first compound 0.0949 µM
  viability, T/C: 10.1%
Second compound 0.316 µM, first compound 0.3 µM
  viability, T/C: 9.23%
Second compound 0.316 µM, first compound 0.949 µM
  viability, T/C: 8.49%
Second compound 0.316 µM, first compound 3 µM
  viability, T/C: 7.04%
Second compound 1 µM, first compound 0.00949 µM
  viability, T/C: 9.97%
Second compound 1 µM, first compound 0.03 µM
  viability, T/C: 10.1%
Second compound 1 µM, first compound 0.0949 µM
  viability, T/C: 10.6%
Second compound 1 µM, first compound 0.3 µM
  viability, T/C: 8.23%
Second compound 1 µM, first compound 0.949 µM
  viability, T/C: 8.1%
Second compound 1 µM, first compound 3 µM
  viability, T/C: 6.68%

## COc1c(OCCCN2CCOCC2)ccc2c3n(c(=NC(=O)c4cnc(N)nc4)nc12)CCN3
Compound 0.00316 µM
  viability, T/C: 98.7% and 85.4%
Compound 0.01 µM
  viability, T/C: 45.2% and 56.9%
Compound 0.0316 µM
  viability, T/C: 11.5% and 15.2%
Compound 0.1 µM
  viability, T/C: 7.98% and 6.59%
Compound 0.316 µM
  viability, T/C: 7.2% and 6.31%
Compound 1 µM
  viability, T/C: 6.67% and 5.78%
Curve of compound
  IC50: 9.02 nM and 12.1 nM

## Cn1ncc(Cl)c1-c1cc(C(=O)NC(CN)Cc2cccc(F)c2)sc1Cl (stereo unspecified) + CCN1CCN(Cc2ccc(Nc3ncc(F)c(-c4cc(F)c5nc(C)n(C(C)C)c5c4)n3)nc2)CC1
[1]
  IC50: 49.8 nM
[2]
  IC50: < 31.6 nM
[3]
  IC50: < 31.6 nM
[4]
  IC50: < 31.6 nM
[5]
  IC50: < 31.6 nM
Second compound 0.01 µM, first compound 0.0316 µM
  viability, T/C: 63.1%
Second compound 0.01 µM, first compound 0.1 µM
  viability, T/C: 28.6%
Second compound 0.01 µM, first compound 0.316 µM
  viability, T/C: 17.1%
Second compound 0.01 µM, first compound 1 µM
  viability, T/C: 9.53%
Second compound 0.01 µM, first compound 3.16 µM
  viability, T/C: 6.15%
Second compound 0.01 µM, first compound 10 µM
  viability, T/C: 0.1%
Second compound 0.0316 µM, first compound 0.0316 µM
  viability, T/C: 36.9%
Second compound 0.0316 µM, first compound 0.1 µM
  viability, T/C: 18.1%
Second compound 0.0316 µM, first compound 0.316 µM
  viability, T/C: 9.18%
Second compound 0.0316 µM, first compound 1 µM
  viability, T/C: 7.63%
Second compound 0.0316 µM, first compound 3.16 µM
  viability, T/C: 5.83%
Second compound 0.0316 µM, first compound 10 µM
  viability, T/C: 0.14%
Second compound 0.1 µM, first compound 0.0316 µM
  viability, T/C: 21.3%
Second compound 0.1 µM, first compound 0.1 µM
  viability, T/C: 12.5%
Second compound 0.1 µM, first compound 0.316 µM
  viability, T/C: 8.7%
Second compound 0.1 µM, first compound 1 µM
  viability, T/C: 6.91%
Second compound 0.1 µM, first compound 3.16 µM
  viability, T/C: 5.88%
Second compound 0.1 µM, first compound 10 µM
  viability, T/C: 0.09%
Second compound 0.316 µM, first compound 0.0316 µM
  viability, T/C: 16%
Second compound 0.316 µM, first compound 0.1 µM
  viability, T/C: 12.5%
Second compound 0.316 µM, first compound 0.316 µM
  viability, T/C: 8.98%
Second compound 0.316 µM, first compound 1 µM
  viability, T/C: 6.46%
Second compound 0.316 µM, first compound 3.16 µM
  viability, T/C: 4.96%
Second compound 0.316 µM, first compound 10 µM
  viability, T/C: 0.19%
Second compound 1 µM, first compound 0.0316 µM
  viability, T/C: 14%
Second compound 1 µM, first compound 0.1 µM
  viability, T/C: 11.7%
Second compound 1 µM, first compound 0.316 µM
  viability, T/C: 9.07%
Second compound 1 µM, first compound 1 µM
  viability, T/C: 8.54%
Second compound 1 µM, first compound 3.16 µM
  viability, T/C: 3.59%
Second compound 1 µM, first compound 10 µM
  viability, T/C: 0.24%
